Data reported in BigSolDB 2.1.

Cn1cc[nH]c1=S
solubility (mole fraction)
Details | 278.15 K | 283.15 K | 288.15 K | 293.15 K | 298.15 K | 303.15 K | 308.15 K | 313.15 K | 318.15 K | 323.15 K
in 1,4-dioxane | 0.0435 | 0.0517 | 0.0616 | 0.0731 | 0.0874 | 0.102 | 0.119 | 0.141 | 0.164 | 0.187
in THF | 0.0475 | 0.0542 | 0.0634 | 0.0733 | 0.0841 | 0.0972 | 0.112 | 0.13 | 0.148 | 0.169
in acetone | 0.0425 | 0.0517 | 0.0623 | 0.0749 | 0.0889 | 0.107 | 0.124 | 0.147 | 0.167 | 0.193
in acetonitrile | 0.016 | 0.0216 | 0.0267 | 0.0338 | 0.0416 | 0.0531 | 0.0668 | 0.0818 | 0.101 | 0.121
in ethanol | 0.0275 | 0.0335 | 0.0417 | 0.0519 | 0.0645 | 0.0795 | 0.0968 | 0.117 | 0.139 | 0.167
in ethyl acetate | 0.0159 | 0.018 | 0.0198 | 0.022 | 0.0246 | 0.0273 | 0.0306 | 0.0339 | 0.038 | 0.0428
in isobutanol | 0.019 | 0.0233 | 0.0289 | 0.0365 | 0.0439 | 0.0542 | 0.0656 | 0.0809 | 0.0966 | 0.117
in isopropanol | 0.0168 | 0.0225 | 0.029 | 0.0381 | 0.0478 | 0.0621 | 0.0788 | 0.0985 | 0.123 | 0.152
in methanol | 0.06 | 0.0711 | 0.084 | 0.0996 | 0.125 | 0.148 | 0.177 | 0.21 | 0.244 | 0.283
in methyl acetate | 0.0288 | 0.0337 | 0.0391 | 0.0452 | 0.0521 | 0.0593 | 0.07 | 0.0817 | 0.0936 | 0.107
in n-butanol | 0.0194 | 0.026 | 0.0328 | 0.0414 | 0.0528 | 0.0665 | 0.0823 | 0.102 | 0.124 | 0.153
in n-propanol | 0.0261 | 0.032 | 0.0385 | 0.0468 | 0.0558 | 0.0663 | 0.0786 | 0.0931 | 0.111 | 0.13
